The text below walks through data of BindingDB's records for patent US20240425453 (Neophore, 2024).

The target in the assay is T1, Mismatch repair endonuclease PMS2 (UniProt P54278).
T1 sequence (P54278 whole entry): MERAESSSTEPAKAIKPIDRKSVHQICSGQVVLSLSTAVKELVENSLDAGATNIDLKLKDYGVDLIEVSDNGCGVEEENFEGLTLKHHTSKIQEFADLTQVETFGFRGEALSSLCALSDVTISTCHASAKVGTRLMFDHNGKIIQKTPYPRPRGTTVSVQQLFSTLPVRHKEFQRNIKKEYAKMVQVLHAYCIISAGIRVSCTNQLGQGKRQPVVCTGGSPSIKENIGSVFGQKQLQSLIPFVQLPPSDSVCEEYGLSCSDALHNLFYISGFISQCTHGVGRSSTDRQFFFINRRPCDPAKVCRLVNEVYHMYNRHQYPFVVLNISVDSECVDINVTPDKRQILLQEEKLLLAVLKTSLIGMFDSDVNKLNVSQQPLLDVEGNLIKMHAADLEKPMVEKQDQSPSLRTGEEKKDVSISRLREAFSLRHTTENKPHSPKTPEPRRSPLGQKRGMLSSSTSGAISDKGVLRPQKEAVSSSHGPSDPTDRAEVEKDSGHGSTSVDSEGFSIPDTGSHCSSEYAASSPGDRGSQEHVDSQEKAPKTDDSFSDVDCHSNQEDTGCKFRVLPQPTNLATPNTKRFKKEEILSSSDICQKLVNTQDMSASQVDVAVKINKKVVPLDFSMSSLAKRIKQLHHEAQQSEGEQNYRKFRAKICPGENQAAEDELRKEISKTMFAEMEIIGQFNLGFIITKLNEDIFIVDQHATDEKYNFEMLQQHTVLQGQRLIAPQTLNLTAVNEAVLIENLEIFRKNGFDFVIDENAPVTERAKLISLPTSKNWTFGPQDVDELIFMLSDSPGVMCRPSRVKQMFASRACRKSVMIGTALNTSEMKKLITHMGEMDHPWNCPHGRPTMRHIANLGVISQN
Nature of the assay: Fluorescence Polarization Assay for PMS2. On the technique in general: Polarisation of emitted light reports the rotation of a fluorescent probe.

Molecules are shown by their SMILES. A value given as a limit tells only on which side of the number the result lay.

One may read the IC50 as the concentration needed to halve the response being measured. The molecule `C=C(CN(C)C)C(=O)Nc1cccc2c1CN(C(=O)c1c(O)cc(O)c(C)c1OC)C2` [US20240425453, Example 36] had an IC50 greater than 1 µM.
